Experiment [1] has as its target T1, thrombin from human plasma (Homo sapiens, UniProt P00734). The experiment is described as follows: Km-based 96-well formatted fluorogenic thrombin inhibition assay.
Experiment [2] addresses T1, thrombin from human plasma. The experiment is described as follows: Km-based chromogenic thrombin inhibition assay (S-2238). Also on record: from tissue; host or cells: human plasma. Conditions: 8 μM S-2238, 10 mU thrombin, pH 7.2, 35° C., 405 nm. The experiment is classed as biochemical. The source says: Specifically, a Km-based chromogenic assay was first employed. […] Measurements at 405 nm are designed to detect the thrombin-induced liberation of p-nitroaniline from the S-2238 substrate. As such, an observed increase in absorbance at 405 nm directly correlates with an increase in hydrolysis of the substrate by thrombin.

Experiment [3] concerns the target T1, thrombin from human plasma. The experiment is described as follows: Vmax-based thrombin inhibition assay (200 μM S-2238). The experiment is classed as biochemical. Also on record: from tissue; host or cells: human plasma. The conditions noted are these: 200 μM S-2238, 40 mU thrombin, pH 7.2, 25° C.
The subject of experiment [4] is anti-KLH-argatroban antibody. The experiment is described as follows: Sandwich ELISA using polyclonal anti-KLH-argatroban antibodies. The experiment is classed as binding, rabbit. Conditions: rabbit erythrocytes treated with argatroban-C6 free acid. As to the method:
The reaction was quenched by adding hydroxylamine, pH 7.8 to a final concentration of 50 mM and incubating at room temperature for 10 minutes.
Rabbit anti-HSA monoclonal antibody (Boehringer/Mannheim, catalog no. 605001) diluted 1:5000 in PBS, pH 7.4 or mouse anti-hGPA monoclonal antibody (BioAtlan-tic/CRTS, mAb 5F4, diluted to 10 μg/ml in 0.1 M sodium acetate, pH 4.5 or mAb 3C10 diluted 1:500 or mAb 3E4 diluted 1:1000 in PBS, pH 7.4 - each antibody recognizes a different epitope of hGPA), were used to capture respective proteins by aliquotting 100 μl/well into a NUNC Maxisorp F96 plate (catalog no. 439454). The plates were incubated overnight at 4° C., were then blocked by the addition of 200 μl/well of 1% BSA/PBS and incubated at room temperature for 1 hour. The plates were then washed 5 times by submersion in PBS, pH 7.4.
Samples were incubated on the plates for 2 hours at room temperature and then were washed as above.
The plates were then incubated at room temperature for 30 minutes and washed as above.
Biotinylated goat anti-rabbit IgG (Vector, catalog no. BA1000) was diluted 1:1000 in 1% BSA/PBS, pH 7.4 and 100 μl/well added to all wells. The plates were incubated at room temperature for 30 minutes and washed as above.
Next, 100 μl/well of ABC-HRP (Vector, catalog no. PK4000) was added, each component diluted 1:500 in PBS, pH 7.4, with 0.1% TWEEN 20 and incubated 30 minutes at room temperature prior to use. The plates were then washed 10 times by submersion in PBS, pH 7.4.
(ELISA stands for enzyme-linked immunosorbent assay.)

Experiment [5] has as its target T1, thrombin from human plasma. The experiment is described as follows: Km-based fluorogenic assay for inhibition of thrombin (Example 7). The experiment is classed as biochemical. Also noted: from tissue; host or cells: human plasma. Conditions: FIGS. 9 and 10. How it is done:
Thrombin from human plasma was obtained from Enzyme System Products, Dublin, Calif., in glycerol:water 1:1, 11.4 mg/ml, 3800 U/mg, MW 36,700, and stored undiluted at -20° C. It was freshly diluted the day of use.
To dilute for the assay, 0.67 μl (25 Units) of thrombin was pipetted into 5 ml of 0.1 mg/ml BSA (from Pierce, Catalog No. 23209, BSA fraction V, a 2 mg/ml stock in saline with sodium azide), in cold PBS (GIBCO, Catalog No. 14190-136, without calcium chloride and magnesium chloride, pH 7.2) and briefly vortexed, yielding a stock of 5 mU thrombin/μl.
The substrate was N-tBOC-β-Benzyl-Asp-Pro-Arg-7-Amido4-Methylcoumarin HCl and was obtained from Sigma, Catalog No. B4028, Lot 122H0070, F.W. 770.3. Five mg was dissolved in […] DMSO for a 4 mM stock. The stock was stored in 200 μl aliquots at -20° C. in the dark.
An alternative substrate was N-tBOC-Val-Pro-Arg-7-Amido4-Methylcoumarin HCl and was obtained from Sigma, Catalog No. B-9385, Lot 53H0805, F.W. of free base 627.7. Five mg was dissolved in 1.863 ml DMSO for a 4 mM stock. The stock was stored in 200 μl aliquots at -20° C. in the dark.
The fluorescent standard was 7-Amido4-Methylcoumarin and was obtained from Aldrich, Catalog No. 25,737-0, MW 175.19. […]
Initial readings were taken to ensure exclusion of rogue wells with abnormally high backgrounds (λ excitation at 360 nm, bandwidth […], λ emission, 460 nm, bandwidth 40 nm). Then, 25 μl of a 10×stock of the putative inhibitor were added per well, mixed for 5 seconds and read kinetically for 10 minutes at ambient temperature to assess background interference and/or any increase in hydrolysis of substrate due to inhibitor.
The thrombin assay was then initiated by adding 25 μl of thrombin/well with a multichannel pipettor and mixed for 5 seconds. The appearence of the fluorescent product (free 7-amido-4-methylcoumarin released from the peptide by thrombin) was followed simultaneously in 48 wells (one reading per minute for 30 minutes, λ excitation at 360 nm, bandwidth 40 nm, λ emission, 460 nm, bandwidth 40 nm). […]

For the compound `CC1CNc2c(cccc2S(=O)(=O)NC(CCCNC(=N)N)C(=O)N2CCC(C)CC2C(=O)NCCCCCCCCCCCC(=O)O)C1` (stereo not drawn) [compound YL-015-10], the half-maximal inhibitory concentration (IC50) (commonly the concentration that gives 50% inhibition) in experiment [1] is roughly 0.08 µM; in experiment [2], 0.15 µM; in experiment [3], 5 to 8 µM.
In experiment [1], `CC1CNc2c(cccc2S(=O)(=O)NC(CCCN=C(N)N)C(=O)N2CCC(C)CC2C(=O)NCCCCCC(=O)O)C1` (stereo not drawn) [compound YL-015-15] returned an IC50 of roughly 0.05 µM. Besides, in experiment [4], the “plate ELISA signal” value was “did not give a signal above background”. The thrombin inhibition result in experiment [5] was “not inhibitory”.
